Data set [1] can be described thus: Solubility (saturated concentration) of reduced coenzyme Q10 crystals in hydrous ethanol, HPLC of filtered liquid phase. The class given is physicochemical. The method, then:
The dissolved concentration of reduced coenzyme Q10 in a liquid phase was measured by analyze a liquid phase sample by high performance liquid chromatography under the following conditions.
• Column: SYMMETRY C18 (manufactured by Waters); 250 mm (length), 4.6 mm (inner diameter) • Mobile phase: C2H5OH:CH3OH=4:3 (v:v) • Detection wavelength: 210 nm • Flow rate: 1 ml/min • Retention time of reduced coenzyme Q10: 9.1 min.
The solubility (saturated concentration) (% by weight) of each of a reduced coenzyme Q10 Form I-type crystal (Form I-type crystal) and a reduced coenzyme Q10 Form II-type crystal (Form II-type crystal) in hydrous ethanol with an ethanol concentration per total volume of 99.5% (v/v), 95% (v/v), and 90% (v/v) at temperatures of 298.15K (25° C.), 303.15K (30° C.), 308.15K (35° C.), and 313.15K (40° C.) was obtained.
The solubility was measured by the following procedures.
To approximately 30 g of each hydrous ethanol, approximately 10 g of a Form I-type crystal or a Form II-type crystal was added, the mixture was stirred under a nitrogen atmosphere and maintained for approximately 1 hour at temperatures of 25° C., 30° C., 35° C., and 40° C. Sampling was performed at each temperature and each sample was filtered quickly to obtain a liquid phase sample. Each sample was analyzed under the above HPLC conditions and the solubility was calculated.

Data set [2] can be described thus: Saturated concentration calculated from Expressions 3 to 8 for 99.5% (v/v) ethanol. Type of data set: physicochemical. The conditions noted are these: calculated by Expressions 7 and 8, natural logarithm. From the text:
Further, the ethanol concentration of 99.5% (v/v) was assigned to Z of Expressions 3, 4, 5, and 6 to obtain the values of the constants AI, BI, AII, and BII. Using these constants, the Log CI of the saturated concentration CI (% by weight) of the Form I-type crystal and the Log CII of the saturated concentration CII (% by weight) of the Form II-type crystal were obtained at each temperature (converting the unit to Kelvin) shown in Table 5 according to Expressions 7 and 8 above.

For data set [3] the following is noted: compared with Form I-type crystal; Patent Literature 4; cited from earlier work.
For data set [4] the following is noted: compared with oxidized coenzyme Q10; cited from earlier work.
The mark [5] stands for this setting: 90% (v/v) ethanol, 298.15 K (25° C.).
Setting [6] is: 90% (v/v) ethanol, 303.15 K (30° C.).
Where [7] appears, read: 90% (v/v) ethanol, 308.15 K (35° C.).
Setting [8] is: 90% (v/v) ethanol, 313.15 K (40° C.).
[9] abbreviates: 95% (v/v) ethanol, 298.15 K (25° C.).
Where [10] appears, read: 95% (v/v) ethanol, 303.15 K (30° C.).
Where [11] appears, read: 95% (v/v) ethanol, 308.15 K (35° C.).
Setting [12] is: 95% (v/v) ethanol, 313.15 K (40° C.).
[13] abbreviates: 99.5% (v/v) ethanol, 298.15 K (25° C.).
[14] abbreviates: 99.5% (v/v) ethanol, 303.15 K (30° C.).
Where [15] appears, read: 99.5% (v/v) ethanol, 308.15 K (35° C.).
[16] abbreviates: 99.5% (v/v) ethanol, 313.15 K (40° C.).

As to `COc1c(O)c(C)c(C/C=C(\C)CC/C=C(\C)CC/C=C(\C)CC/C=C(\C)CC/C=C(\C)CC/C=C(\C)CC/C=C(\C)CC/C=C(\C)CC/C=C(\C)CCC=C(C)C)c(O)c1OC` [Form I, reduced coenzyme Q10], the Solubility in data set [1] (setting [5]) was determined as 0.13 % by weight; in data set [1] (setting [6]), 0.18 % by weight; in data set [1] (setting [7]), 0.29 % by weight; in data set [1] (setting [8]) it was 0.88 % by weight; in data set [1] (setting [9]), 0.65 % by weight; in data set [1] (setting [10]), 1.01 % by weight. Also, the Solubility was 2.33 % by weight in data set [1] (setting [11]); 8.98 % by weight in data set [1] (setting [12]); 2.01 % by weight in data set [1] (setting [13]); 4.53 % by weight in data set [1] (setting [14]); 12.6 % by weight in data set [1] (setting [15]); 46.3 % by weight in data set [1] (setting [16]). The “Solubility compared between crystal forms” value in data set [1] (hydrous ethanol with any concentration (99.5, 95, 90% v/v)) was “higher than that of the Form II-type crystal”. The “Log of saturated concentration (% by weight)” value in data set [2] (10° C.) was −2.686; in data set [2] (20° C.), −0.584; in data set [2] (25° C.), 0.467; in data set [2] (30° C.), 1.517; in data set [2] (35° C.) it was 2.568.
With `COc1c(O)c(C)c(C/C=C(\C)CC/C=C(\C)CC/C=C(\C)CC/C=C(\C)CC/C=C(\C)CC/C=C(\C)CC/C=C(\C)CC/C=C(\C)CC/C=C(\C)CCC=C(C)C)c(O)c1OC` [Form II, reduced coenzyme Q10], the Solubility in data set [1] (setting [5]) is on record as 0.10 % by weight; in data set [1] (setting [6]), 0.13 % by weight; in data set [1] (setting [7]) it was 0.23 % by weight; in data set [1] (setting [8]), 0.41 % by weight; in data set [1] (setting [9]), 0.37 % by weight; in data set [1] (setting [10]), 0.52 % by weight. The Solubility in data set [1] (setting [11]) amounted to 0.86 % by weight; in data set [1] (setting [12]), 2.81 % by weight; in data set [1] (setting [13]) it was 1.22 % by weight; in data set [1] (setting [14]), 2.32 % by weight; in data set [1] (setting [15]), 5.51 % by weight; in data set [1] (setting [16]), 17.9 % by weight. The “Stability of crystal form” value in data set [3] is “much more stable than the conventional reduced coenzyme Q10”. Further, the “Log of saturated concentration (% by weight)” value is listed as −3.858 in data set [2] (10° C.); −2.145 in data set [2] (20° C.); −1.288 in data set [2] (25° C.); −0.432 in data set [2] (30° C.); 0.425 in data set [2] (35° C.).
As for `COc1c(O)c(C)c(C/C=C(\C)CC/C=C(\C)CC/C=C(\C)CC/C=C(\C)CC/C=C(\C)CC/C=C(\C)CC/C=C(\C)CC/C=C(\C)CC/C=C(\C)CCC=C(C)C)c(O)c1OC` [reduced coenzyme Q10], the Oral absorbability entry in data set [4] is “higher oral absorbability than that of oxidized coenzyme Q10”.

The record behind these values is patent publication US20230339836A1, “METHOD FOR PRODUCING REDUCED COENZYME Q10 FORM II CRYSTALS” (KANEKA CORPORATION, priority 2020, published 2023).
